Results on 14 compounds are retold here after patent publication US11753374B2, “Compounds for the treatment of acute and chronic kidney disease” (Southern Research Institute, priority 2020, dated 2023).

The EC50 is the concentration giving half of the maximal effect. In general, Emax refers to the size of the effect at its maximum, as opposed to the concentration needed.

In the assay the test system is heme oxygenase-1 (HO-1). The experiment in a line: High throughput screen: HO-1 promoter/enhancer luciferase reporter (pHOGL3/4.5+220) in stable HEK293 cells. Type of assay: cell-based. Particulars: Homo sapiens; for EC50: Table 1, evaluation of biaryl aminomaleimides, HO-1 induction; for Emax: Table 1, unit inferred, Emax as % of 5 μM hemin. Here is the method:
The generation of the pHOGL3/4.5+220 construct is described in Deshane, et al. (2010) “SpI regulates chromatin looping between an intronic enhancer and distal promoter of the human heme oxygenase-1 gene in renal cells” J Biol Chem 285(22): 16476-86. See also FIG. 1.
Briefly, BamHI sites were added to the 4.5-kb PCR product generated by long-range PCR from a bacterial artificial chromosome clone containing portions of chromosome 22 (accession no. Z82244), including the HO-1 gene. This fragment was cloned into the BglII restriction site of the multiple cloning region to make the parental clone (pHOGL3/4.5). The 220-bp intronic enhancer was amplified with SalI sites on either end and cloned into the SalI site of the vector to generate pHOGL3/4.5+220.
In order to generate cells that stably express luciferase expression vectors that lack a mammalian antibiotic selection cassette, HEK293 cells were co-transfected with either pHOGL3/4.5+220 (Deshane et al, 2010) or the Triple Mutant construct (Liby, Hock et al, 2005; Hock et al, 2007) and pcDNA3.1 Zeocin using Lipofectamine 2000. Cells were cultured in Zeocin (400 ug/ml; Invitrogen) for selection. Individual clones were sorted by flow cytometry and plated into a 96-well plate at a density of one cell per well. Clones were maintained and expanded in complete media (DMEM/10% FBS/1× antibiotic-antimycotic) supplemented with 100 ug/ml Zeocin, and incubated at 37° C. in 5% carbon dioxide. Incorporation of the Luciferase expression vectors was validated by assaying for luciferase.
A library of over 150,000 compounds, as well as a library of over 4,000 FDA approved compounds, were used in the HTS assay. […] This led to the identification of approximately 800 compounds that induce HO-1 and have desirable chemical structures. […] The In-Cell Western assay was optimized to screen for endogenous HO-1 in a high throughput platform, and results were validated by Western blot, real-time PCR, and enzyme activity assays. Additional RNA sequencing studies highlighted a role for the transcription factor Nrf2 and other targets in HO-1 induction by several small molecules.
A general note: Reporter assays use an easily measured gene product as a stand-in for the process of interest.

Where only a bound is given, the exact number is not on record here.

On to `COc1ccc(N2C(=O)C=C(Nc3cc(F)c(O)c(F)c3)C2=O)cc1F` [Compound 57], for which the EC50 worked out at 5.67 µM and the Emax is 98.7%. In the case of `CC(C)(C)c1ccc(N2C(=O)C=C(Nc3cc(F)c(O)c(F)c3)C2=O)cc1` [Compound 58], the EC50 was 1.73 µM and the Emax stood at 53.3%.

In the case of `O=C1C=C(Nc2cc(F)c(O)c(F)c2)C(=O)N1c1ccc(-c2cscn2)cc1` [Compound 59], the EC50 was 9.22 µM and the Emax was 43.9%. For `O=C1C=C(Nc2cc(F)c(O)c(F)c2)C(=O)N1c1ccc(N2CCOCC2)cc1` [Compound 60] the same measures were 22.2 µM and 66.9%. As for `O=C1C=C(Nc2cc(F)c(O)c(F)c2)C(=O)N1c1ccc(Oc2ccccc2)cc1` [Compound 61], the 50% effective concentration (EC50) was found to be 3.77 µM and the Emax was 33.4%. For `O=C1C=C(Nc2cc(F)c(O)c(F)c2)C(=O)N1c1ccc(-c2ccccc2)cc1` [Compound 62] the same measures were 2.75 µM and 34.6%. For `O=C1C=C(Nc2cc(F)c(O)c(F)c2)C(=O)N1c1cccc(F)c1` [Compound 63] the same measures were 3.19 µM and 30%.

In the case of `O=C1C=C(Nc2cc(F)c(O)c(F)c2)C(=O)N1c1cccc(C(F)(F)F)c1` [Compound 64], the EC50 amounted to 3.33 µM and the Emax came out at 23.9%. The matching figures for `COC(=O)c1cccc(N2C(=O)C=C(Nc3cc(F)c(O)c(F)c3)C2=O)c1` [Compound 65]: 15.6 µM and 42.8%. For `N#Cc1cccc(N2C(=O)C=C(Nc3cc(F)c(O)c(F)c3)C2=O)c1` [Compound 66], the EC50 was greater than 50 µM. Turning to `O=C1C=C(Nc2cc(F)c(O)c(F)c2)C(=O)N1C1CCCCC1` [Compound 67], the EC50 was greater than 50 µM and the Emax is 25.6%. On to `O=C1C=C(Nc2cc(F)c(O)c(F)c2)C(=O)N1C1CC1` [Compound 68], for which the EC50 was greater than 50 µM. For the compound `O=C1C=C(Nc2ccc(O)cc2)C(=O)N1c1cc(F)c(O)c(F)c1` [Compound 69], the EC50 was found to be 16.7 µM and the Emax is 105%.

As for `O=C1C=C(Nc2ccccc2)C(=O)N1c1cc(F)c(O)c(F)c1` [Compound 70], the EC50 was greater than 50 µM.
